# Assay results taken from patent US10752587B2, “Homobispiperidinyl derivatives as liver X receptor beta agonists, compositions and their use” (Merck Sharp & Dohme Corp., priority 2015, dated 2020).
# Read-outs that look alike come from different tables or passages of the source.
# Tests used:
# [1] = target: T1, glutathione-S-transferase (GST) tagged LXRbeta LBD (ligand binding domain) (Homo sapiens, UniProt P55055); test: LanthaScreen TR-FRET Liver X Receptor Coactivator Assay, co-activator recruitment to LXRbeta LBD; type: biochemical
# T1 construct: purchased Invitrogen pv4658.pps
# T1 sequence (P55055 222-460 limits assumed): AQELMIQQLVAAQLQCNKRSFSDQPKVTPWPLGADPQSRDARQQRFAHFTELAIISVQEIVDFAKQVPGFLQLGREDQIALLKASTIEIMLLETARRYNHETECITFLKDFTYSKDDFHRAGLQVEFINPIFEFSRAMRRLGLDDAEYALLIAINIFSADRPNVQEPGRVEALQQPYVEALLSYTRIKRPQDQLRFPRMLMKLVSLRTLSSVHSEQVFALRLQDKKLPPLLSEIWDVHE
# How it was run: (§1)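 Readout is time-resolved FRET between a terbium anti-GST antibody bound to the LBD and a fluorescein-tagged coactivator peptide recruited on ligand binding. Plates were incubated at room temperature before reading. Potency (IP) and efficacy (Emax) are referenced to T0901317.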
# [2] = target: T2, glutathione-S-transferase (GST) tagged LXRalpha LBD (ligand binding domain) (Homo sapiens, UniProt Q13133); test: LanthaScreen TR-FRET Liver X Receptor Coactivator Assay, co-activator recruitment to LXRalpha LBD; type: biochemical; details: for LXR alpha IP (nM) / EC50: potency (Inflection Point, IP), co-activator recruitment to LXRalpha LBD, in relation to T0901317; for LXR alpha IP (Inflection Point, potency): co-activator recruitment to GST-LXRalpha LBD, TR-FRET; for EC50: read-out: LXR alpha IP
# T2 construct: purchased Invitrogen pv4655
# T2 sequence (Q13133 209-447 limits assumed): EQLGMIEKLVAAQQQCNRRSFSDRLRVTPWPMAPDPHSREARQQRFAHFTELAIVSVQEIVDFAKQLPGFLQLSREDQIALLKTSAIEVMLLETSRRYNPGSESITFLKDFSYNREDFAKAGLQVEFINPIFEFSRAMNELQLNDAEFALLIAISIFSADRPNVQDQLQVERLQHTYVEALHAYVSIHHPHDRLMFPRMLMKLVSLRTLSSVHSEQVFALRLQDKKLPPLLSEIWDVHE
# How it was run: as §1
# [3] = efficacy at max dose, in relation to reference dual agonist T0901317, read-out: LXR beta Activity @ max dose (%)
# [4] = potency (Inflection Point, IP), co-activator recruitment to LXRbeta LBD, in relation to T0901317, read-out: LXR beta IP
# [5] = efficacy at max dose, in relation to reference dual agonist T0901317, read-out: LXR alpha Activity @ max dose (%)
# [6] = co-activator recruitment to GST-LXRbeta LBD, TR-FRET, read-out: LXR beta IP (Inflection Point, potency)
# [7] = efficacy in relation to reference dual agonist T0901317, read-out: LXR beta Activity @ max dose
# [8] = efficacy in relation to reference dual agonist T0901317, read-out: LXR alpha Activity @ max dose
# [9] = efficacy at max dose, in relation to reference dual agonist T0901317
Compound,"Emax [1, 3] [%]","EC50 [1, 4] [nM]","Emax [2, 5] [%]",LXR alpha IP (nM) [2],"EC50 [1, 6] [nM]","Emax [1, 7] [%]","LXR alpha IP (Inflection Point, potency) [2]","Emax [2, 8] [%]",EC50 [2] [nM],"LXR beta Activity @ max dose (%) [1, 9] [%]","LXR alpha Activity @ max dose (%) [2, 9] [%]"
"COc1cccc([C@@](O)(C(=O)N2CCC(CC3CCN(c4ccc(C(=O)N(C)C)c(C)n4)CC3)CC2)C(F)(F)F)c1 [Example 7-5, N,N,2-trimethyl-6-[4-({1-[(2R)-3,3,3-trifluoro-2-hydroxy-2-(3-methoxyphenyl)propanoyl]piperidin-4-yl}methyl)piperidin-1-yl]pyridine-3-carboxamide]",69,25,8,NO IP,–,–,–,–,–,–,–
"CN(C)C(=O)c1ccc(N2CCC(CC3CCN(S(=O)(=O)c4cccc(Cl)c4)CC3)CC2)cc1Cl [Example 13-13, 2-chloro-4-[4-({1-[(3-chlorophenyl)sulfonyl]-piperidin-4-yl}methyl)-piperidin-1-yl]-N,N-dimethylbenzamide]",–,–,–,–,74,49,NO IP,15,–,–,–
"CN(C)C(=O)c1ccc(N2CCC(CC3CCN(C(=O)[C@](O)(c4cccc(O)c4)C(F)(F)F)CC3)CC2)cc1Cl [Example 2-87, 2-chloro-N,N-dimethyl-4-[4-({1-[(2R)-3,3,3-trifluoro-2-hydroxy-2-(3-hydroxyphenyl)propanoyl]piperidin-4-yl}methyl)piperidin-1-yl]benzamide]",74,19,14,NO IP,–,–,–,–,–,–,–
"COc1cccc([C@@](O)(C(=O)N2CCC(CC3CCN(c4ccc(C(=O)N(C)C)cc4)CC3)CC2)C(F)F)c1 [Example 2-130, 4-[4-({1-[(2R)-3,3-difluoro-2-hydroxy-2-(3-methoxy-phenyl)propanoyl]piperidin-4-yl}methyl)piperidin-1-yl]-N,N-dimethyl-benzamide]",31,191,0,NO IP,–,–,–,–,–,–,–
"CN(C)C(=O)c1ccc(N2CCC(CC3CCN(C(=O)C(C)(C)c4ccccc4)CC3)CC2)nc1Cl [Example 7-61, 2-chloro-N,N-dimethyl-6-(4-{[1-(2-methyl-2-phenylpropanoyl)piperidin-4-yl]methyl}piperidin-1-yl)pyridine-3-carboxamide]",68,45,21,–,–,–,–,–,817,–,–
"COc1cccc([C@@](O)(C(=O)N2CCC(CC3CCN(c4ccc(C(=O)N(C)C)c(Cl)c4)CC3)CC2)C(F)F)c1 [Example 2-106, 2-chloro-4-[4-({1-[(2R)-3,3-difluoro-2-hydroxy-2-(3-methoxy-phenyl)propanoyl]piperidin-4-yl}methyl)piperidin-1-yl]-N,N-dimethyl-benzamide]",19,10,0,NO IP,–,–,–,–,–,–,–
"CN(C)C(=O)c1ccc(N2CCC(CC3CCN(C(=O)[C@](O)(c4ccccc4)C(F)(F)F)CC3)CC2)cc1Cl [Example 2-12, 2-chloro-N,N-dimethyl-4-[4-({1-[(2R)-3,3,3-trifluoro-2-hydroxy-2-phenylpropanoyl]piperidin-4-yl}methyl)piperidin-1-yl]benzamide]",79,–,25,–,–,–,–,–,–,–,–
"COc1cccc(CS(=O)(=O)N2CC(CC3CCN(c4ccc(C(=O)N(C)C)c(Cl)n4)CC3)C2)c1 [Example 14-3, 2-chloro-6-[4({1-[(3-methoxybenzyl)-sulfonyl]azetidin-3-yl}methyl)piperidin-1-yl]-N,N-dimethyl-pyridine-3-carboxamide]",–,–,–,–,1510,48,NO IP,5,–,–,–
"CN(C)CCN(C)C(=O)c1ccc(N2CCC(CC3CCN(C(=O)[C@](O)(c4ccccc4)C(F)(F)F)CC3)CC2)cc1Cl [Example 4-13, 2-chloro-N-[2-(dimethylamino)ethyl]-N-methyl-4-[4-({1-[(2R)-3,3,3-trifluoro-2-hydroxy-2-phenylpropanoyl]piperidin-4-yl}methyl)piperidin-1-yl]benzamide]",62,21,30,–,–,–,–,–,678,–,–
"CC(C)Oc1cccc([C@@](O)(C(=O)N2CC(CC3CCN(c4ccc(C(=O)N(C)C)c(Cl)c4)CC3)C2)C(F)(F)F)c1 [Example 2-60, 2-chloro-N,N-dimethyl-4-{4-[(1-{(2R)-3,3,3-trifluoro-2-hydroxy-2-[3-(1-methyl-ethoxy)phenyl]propanoyl}azetidin-3-yl)methyl]piperidin-1-yl}benzamide]",66,26,2,NO IP,–,–,–,–,–,–,–
"COc1cccc([C@@](O)(C(=O)N2CCC(CC3CCN(c4ccc(C(=O)N(C)C)c(Cl)n4)CC3)CC2)C(F)(F)F)c1 [Example 7-74, 2-chloro-N,N-dimethyl-6-[4-({1-[(2R)-3,3,3-trifluoro-2-hydroxy-2-(3-methoxyphenyl)propanoyl]piperidin-4-yl}methyl)piperidin-1-yl] pyridine-3-carboxamide]",–,7,–,NO IP,–,–,–,–,–,61,9
"COc1cccc([C@@](O)(C(=O)N2CC(CC3CCN(c4ccc(C(=O)N(C)C)c(OC)n4)CC3)C2)C(F)(F)F)c1 [Example 7-21, 2-methoxy-N,N-dimethyl-6-[4-[{1-[(2R)-3,3,3-trifluoro-2-hydroxy-2-(3-methoxyphenyl)propanoyl]azetidin-3-yl}methyl)piperidin-1-yl]pyridine-3-carboxamide]",70,169,2,NO IP,–,–,–,–,–,–,–
"COc1cccc([C@@](O)(C(=O)N2CCC(SC3CCN(c4ccc(C(=O)N(C)C)c(Cl)n4)CC3)CC2)C(F)(F)F)c1 [Example 9-2, 2-chloro-N,N-dimethyl-6-[4-({1-[(2R)-3,3,3-trifluoro-2-hydroxy-2-(3-methoxyphenyl)-propanoyl]piperidin-4-yl}sulfanyl)-piperidin-1-yl]-pyridine-3-carboxamide]",70,14,7,NO IP,–,–,–,–,–,–,–
"Cc1cc(N2CCC(CC3(C)CCN(C(=O)[C@](O)(c4cc(F)cc(Cl)c4)C(F)(F)F)CC3)CC2)ccc1C(=O)N(C)C [Example 2-75, 4-[4-({1-[(2R)-2-(3-chloro-5-fluorophenyl)-3,3,3-trifluoro-2-hydroxy-propanoyl]-4-methylpiperidin-4-yl}methyl)piperidin-1-yl]-N,N,2-trimethyl-benzamide]",80,12,31,–,–,–,–,–,167,–,–
"CN(C)C(=O)c1ccc(N2CCC(CC3CCN(C(=O)C4(c5ccccc5)CCCC4)CC3)CC2)cc1Cl [Example 2-10, 2-chloro-N,N-dimethyl-4-[4-({1-[(1-phenyl-cyclopentyl)carbonyl]piperidin-4-yl}methyl)piperidin-1-yl] benzamide]",60,50,0,NO IP,–,–,–,–,–,–,–
"Cc1nc(N2CCC(CC3CCN(C(=O)[C@](O)(c4cc(Cl)cc(Cl)c4)C(F)(F)F)CC3)CC2)ccc1C(=O)N(C)C [Example 7-9, 6-[4-({1-[(2R)-2-(3,5-dichlorophenyl)-3,3,3-trifluoro-2-hydroxypropanoyl]piperidin-4-yl}methyl)piperidin-1-yl]-N,N,2-trimethylpyridine-3-carboxamide]",70,12,3,NO IP,–,–,–,–,–,–,–
"COc1cccc([C@@](N)(C(=O)N2CCC(CC3CCN(c4ccc(C(=O)N(C)C)c(Cl)n4)CC3)CC2)C(F)(F)F)c1 [Example 7-114, 6-[4-({1-[(2R)-2-amino-3,3,3-trifluoro-2-(3-methoxyphenyl)propanoyl]piperidin-4-yl}methyl)piperidin-1-yl]-2-chloro-N,N-dimethylpyridine-3-carboxamide]",21,236,0,NO IP,–,–,–,–,–,–,–
"CN(C)C(=O)c1ccc(N2CCC(CC3CCN(C(=O)C4(c5ccccc5)CCC4)CC3)CC2)cc1Cl [Example 2-18, 2-chloro-N,N-dimethyl-4-[4-({1-[(1-phenylcyclobutyl)carbonyl]piperidin-4-yl}methyl)piperidin-1-yl]benzamide]",46,151,6,NO IP,–,–,–,–,–,–,–
